Where two headings read alike, the source gives them in different places.
Assays:
SJSA-1 (p53 wild-type) = test: Cell growth assay (WST-8); assay type: cell-based
HCT-116 (p53 wild-type) = test: Cell growth assay (WST-8); assay type: cell-based, human; conditions: Homo sapiens, HCT-116, read-out: IC50 HCT-116 (p53 wild-type)
LNCAP (p53 wild-type) = test: Cell growth assay (WST-8); assay type: cell-based, human
PC-3 (deleted p53) = test: Cell growth assay (WST-8); assay type: cell-based; conditions: read-out: IC50 PC-3 (deleted p53)
RS4; 11 (p53 wt) = test: cells; conditions: Homo sapiens, RS4-11, 96 h, read-out: RS4; 11 (p53 wt) IC50 (μM), Four day treatment
[1] = target: recombinant human His-tagged MDM2 protein (residues 1-118) (Homo sapiens (Human), UniProt Q00987); test: Fluorescence-polarization MDM2 binding assay (Example 2); conditions: Table 2A; no unit in the cell (μM unless otherwise indicated)
recombinant human His-tagged MDM2 protein (residues 1-118), sequence (Q00987 1-118): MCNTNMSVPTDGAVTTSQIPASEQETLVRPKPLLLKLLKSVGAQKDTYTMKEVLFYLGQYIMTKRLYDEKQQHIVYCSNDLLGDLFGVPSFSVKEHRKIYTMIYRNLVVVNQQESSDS

HCT-116 (p53—/—) = test: Cell growth assay (WST-8); assay type: cell-based; conditions: Homo sapiens, HCT-116, read-out: IC50 HCT-116 (p53—/—)
[2] = Homo sapiens, SJSA-1, read-out: IC50 SJSA-1 (p53 wild-type)
[3] = Homo sapiens, LNCaP, read-out: IC50 LNCAP (p53 wild-type)

| SMILES | IC50 (PC-3 (deleted p53)) [nM] | IC50 [1] [µM] | IC50 (HCT-116 (p53 wild-type)) [nM] | IC50 (LNCAP (p53 wild-type); [3]) [nM] | further results |
| --- | --- | --- | --- | --- | --- |
| CC(C)(C)C[C@@H]1N[C@@H](C(=O)N[C@H]2C[C@@](C)(O)C2)[C@H](c2cccc(Cl)c2F)[C@]12C(=O)Nc1c2ccc(Cl)c1F | 10100 | < 0.1 |  |  | IC50 (SJSA-1 (p53 wild-type); Homo sapiens, SJSA-1; read-out: IC50 SJSA-1 (p53 wild-type)): 200 nM; IC50 (LNCAP (p53 wild-type); Homo sapiens, LNCaP; read-out: IC50 LNCAP (p53 wild-type)): 300 nM |
| CC(C)(C)C[C@@H]1N[C@@H](C(=O)N[C@H]2C[C@@](C)(O)C2)[C@H](c2cc(Cl)ccc2F)[C@]12C(=O)Nc1cc(Cl)ccc12 [C11701] | 19600 |  | 1400 | 1500 | IC50 (HCT-116 (p53—/—)): 21800 nM |
| CC(C)(C)C[C@H]1N[C@@H](C(=O)N[C@H]2C[C@](C)(O)C2)[C@H](c2cccc(Cl)c2F)[C@@]12C(=O)Nc1cc(Cl)ccc12 [MI-519-65] |  |  | < 3000 | < 3000 | IC50 (SJSA-1 (p53 wild-type); [2]): < 3000 nM |
| CN1[C@@H](CC(C)(C)C)[C@@]2(C(=O)Nc3cc(Cl)ccc32)[C@@H](c2cccc(Cl)c2F)[C@@H]1C(=O)N[C@H]1C[C@@](C)(O)C1 [C30201] |  | < 0.1 |  |  |  |

Second part, led by results:

| IC50 (PC-3 (deleted p53)) [nM] | IC50 [1] [µM] | SMILES | IC50 (HCT-116 (p53 wild-type)) [nM] | IC50 (LNCAP (p53 wild-type); [3]) [nM] | further results |
| --- | --- | --- | --- | --- | --- |
| 14700 |  | CC(C)(C)C[C@H]1N[C@@H](C(=O)NC2CCC(O)CC2)[C@H](c2cccc(Cl)c2F)[C@@]12C(=O)Nc1cc(Cl)ccc12 (stereo partly shown) [MI-773] | 58 | 85 | IC50 (SJSA-1 (p53 wild-type); [2]): 61 nM; IC50 (RS4; 11 (p53 wt)): 0.13 µM |
|  | > 5 | CC(C)(C)C[C@@H]1N[C@@H](C(=O)NC2CCC(O)CC2)[C@H](Cc2ccccc2)[C@]12C(=O)Nc1cc(Cl)ccc12 (single isomer, unassigned) [CB084-Isomer B] |  |  |  |
|  | > 5 | O=C(NC1CCC(O)CC1)[C@@H]1N[C@@H](c2ccccc2)[C@@]2(C(=O)Nc3cc(Cl)ccc32)[C@H]1Cc1ccccc1 (single isomer, unassigned) [CB083-Isomer B] |  |  |  |
